Values after ≈ are worked out from the molar mass of the structure shown. Counter-ions that a name gives are not always drawn. Like-named read-outs stand apart in the source and are kept apart here.
Legend:
M. tuberculosis H37Rv = assay: MIC determination by microbroth dilution, anti-tuberculosis activity; format: cell-based, Mycobacterium tuberculosis; conditions: for MIC: Mycobacterium tuberculosis, H37RV, 168 h, read-out: MIC
[1] = system: S. aureus 8325 or strain ATCC 29213; assay: MIC determination by microbroth dilution; format: cell-based, Staphylococcus aureus; conditions: Staphylococcus aureus, ATCC29213; S. aureus 8325 or strain ATCC 29213 (for 1471-1544)
[2] = system: Strep. pyogenes ATCC 700294; assay: MIC determination by microbroth dilution; format: cell-based, Streptococcus pyogenes; conditions: Streptococcus pyogenes, ATCC700294, read-out: MIC S. pyogenes
[3] = system: Strep. pneumoniae DAW27 or strain R6; assay: MIC determination by microbroth dilution; format: cell-based, Streptococcus pneumoniae; conditions: Streptococcus pneumoniae; Strep. pneumoniae DAW27 or strain R6 (for 1443-1544); read-out: MIC S. pneumoniae
E. faecalis ATCC 33186 = assay: MIC determination by microbroth dilution; format: cell-based, Enterococcus faecalis; conditions: Enterococcus faecalis, ATCC33186
B. anthracis Sterne 34F2 = assay: microbe, parasite or virus in culture; format: cell-based, Bacillus anthracis; conditions: Bacillus anthracis, STERNE34F2, read-out: MIC B. anthracis 34F2
[4] = system: Burkholderia cepacia ATCC 25416; assay: MIC determination by microbroth dilution; format: cell-based; conditions: ATCC25416, read-out: MIC B. cepcia
[5] = system: Proteus mirabilis ATCC 25933; assay: MIC determination by microbroth dilution; format: cell-based; conditions: ATCC25933
[6] = system: Proteus vulgaris ATCC 33420; assay: MIC determination by microbroth dilution; format: cell-based; conditions: ATCC33420
[7] = system: Klebsiella pneumoniae ATCC 33495; assay: MIC determination by microbroth dilution; format: cell-based; conditions: ATCC33495
[8] = system: Acinetobacter baumannii ATCC 19606; assay: MIC determination by microbroth dilution; format: cell-based; conditions: ATCC19606
P. aeruginosa PAO1 = assay: MIC determination by microbroth dilution; format: cell-based, Pseudomonas aeruginosa; conditions: Pseudomonas aeruginosa
[9] = system: Strenotrophomonas maltophilia ATCC 13637; assay: MIC determination by microbroth dilution; format: cell-based
E. coli K12 = assay: MIC determination by microbroth dilution; format: cell-based, Escherichia coli; conditions: Escherichia coli, K12
E. coli K12 ΔtolC = assay: microbe, parasite or virus in culture; format: cell-based; conditions: Escherichia coli, read-out: MIC E. coli K12 ΔtolC
E. coli ribosomes = format: biochemical; conditions: for IC50, 50% inhibition of luciferase biosynthesis in S30 assay: E. coli S30 transcription/translation assay
[10] = Cytotoxicity, MTT cell proliferation assay; conditions: African green monkey, Vero epithelial cells (ATCC CCL-81)
Vero epithelial cells [11] = assay: Cytotoxicity, MTT cell proliferation assay; conditions: Vero IC50 / M. tuberculosis MIC
Vero epithelial cells [12] = conditions: African green monkey
Borrelia burgdorferi = conditions: spirochete Borrelia burgdorferi, Criswell et al.; cited from earlier work
[13] = system: protein synthesis in whole cell M. bovis BCG; format: cell-based

Row | Structure (SMILES) | MIC (M. tuberculosis H37Rv) [µg/mL] | MIC [1] [µg/mL] | MIC [2] [µg/mL] | MIC [3] [µg/mL] | MIC (E. faecalis ATCC 33186) [µg/mL] | MIC (B. anthracis Sterne 34F2) [µg/mL] | MIC [4] [µg/mL] | MIC [5] [µg/mL] | MIC [6] [µg/mL] | MIC [7] [µg/mL] | MIC [8] [µg/mL] | MIC (P. aeruginosa PAO1) [µg/mL] | MIC [9] [µg/mL] | MIC (E. coli K12) [µg/mL] | MIC (E. coli K12 ΔtolC) [µg/mL] | IC50, 50% inhibition of luciferase biosynthesis in S30 assay (E. coli ribosomes) [µg/mL] | IC50 at 72 h [10] [µg/mL] | further results
1 | CN[C@@H]1[C@H](O)[C@H](NC)C2O[C@]3(O)C(OC2[C@H]1O)O[C@H](C)C[C@H]3NC(=O)Cc1ccccc1OC (stereo partly drawn) [Compound 1448, 3′-Dihydro-3′-deoxy-4(R)-(2-methoxy-phenyl)acetylamino spectinomycin Dihydrochloride] | 200 | > 200 | 25 | 25 | > 200 | > 200 | 200 | > 200 | > 200 | > 200 | > 200 | > 200 | > 200 | > 200 | > 200 | 2.41 |  | 
2 | CN[C@@H]1[C@H](O)[C@H](NC)C2O[C@]3(O)C(OC2[C@H]1O)O[C@H](C)C[C@H]3NC(=O)c1cnccn1 (stereo partly drawn) [Compound 1453, 3′-Dihydro-3′-deoxy-4(R)-(pyrazine-2-yl)carboxylicamino spectinomycin tetrahydrobromide] | > 200 | > 200 | 25 | 25 | > 200 | > 200 | > 200 | > 200 | > 200 | > 200 | > 200 | > 200 | > 200 | > 200 | 200 | 1.04 |  | 
3 | CN[C@@H]1[C@H](O)[C@H](NC)C2O[C@]3(O)C(OC2[C@H]1O)O[C@H](C)C[C@H]3NC(=O)Cc1nc2ccccc2o1 (stereo partly drawn) [Compound 1465, 3′-Dihydro-3′-deoxy-4(R)-(benzooxazol-2-yl)acetylamino spectinomycin trihydrobromide] | 3.12 | > 200 | 12.5 | 12.5 | 100 | 100 | > 200 | > 200 | > 200 | > 200 | > 200 | > 200 | > 200 | > 200 | 12.5 | 0.50 |  | 
4 | CN[C@@H]1[C@H](O)[C@H](NC)C2O[C@]3(O)C(OC2[C@H]1O)O[C@H](C)C[C@H]3NC(=O)Cc1c[nH]cn1 (stereo partly drawn) [Compound 1466, 3′-Dihydro-3′-deoxy-4(R)-(1H-imidazol-4-yl)acetylamino spectinomycin tetradrobromide] | 6.25 (≈ 14.2 µM) | > 200 | 25 (≈ 56.6 µM) | 12.5 (≈ 28.3 µM) | > 200 | > 200 | > 200 | > 200 | > 200 | > 200 | > 200 | > 200 | > 200 | 100 (≈ 227 µM) | 50 (≈ 113 µM) | 0.57 |  | 
5 | CC[C@@H](CO)NCCN[C@@H](CC)CO [Ethambutol] |  |  |  |  |  |  |  |  |  |  |  |  |  |  |  |  | 732 (≈ 3580 µM) | therapeutic index (IC50 divided by the MIC) (Vero epithelial cells [11]): 913.8
6 | CN[C@@H]1[C@H](O)[C@H](NC)[C@H]2O[C@@]3(O)C(=O)C[C@@H](C)O[C@H]3O[C@@H]2[C@H]1O [Spectinomycin, reference compound] | 25 (≈ 75.2 µM) | 25 (≈ 75.2 µM) | 25 (≈ 75.2 µM) | 50 (≈ 150 µM) | 50 (≈ 150 µM) | 25 (≈ 75.2 µM) | > 200 | > 200 | 50 (≈ 150 µM) | 50 (≈ 150 µM) | > 200 | 100 (≈ 301 µM) | > 200 | 12.5 to 50 (≈ 37.6 to 150 µM) | 12.5 (≈ 37.6 µM) | 0.32 | 1030 (≈ 3100 µM) | IC50 (E. coli ribosomes; E. coli S30 system, FIG. 4, read-out: concentration causing 50% reduction in the synthesis of luciferase): 0.9 µM; therapeutic index (IC50 divided by the MIC) (Vero epithelial cells [12]): 41.5; frequency at which resistance arises (Borrelia burgdorferi): 10^−6
7 | [H]/N=C(/N)N[C@H]1[C@H](O)[C@@H](O)[C@H](O[C@@H]2O[C@@H](C)[C@](O)(C=O)[C@H]2O[C@@H]2O[C@@H](CO)[C@H](O)[C@@H](O)[C@@H]2NC)[C@@H](N/C(N)=N\[H])[C@@H]1O [Streptomycin, reference compound] |  | 0.4 (≈ 0.688 µM) | 25 (≈ 43 µM) | 12.5 (≈ 21.5 µM) | 50 (≈ 86 µM) | 0.8 (≈ 1.38 µM) | > 200 | 50 (≈ 86 µM) | 1.6 (≈ 2.75 µM) | > 200 | > 200 | 25 (≈ 43 µM) | 3.12 (≈ 5.36 µM) | 0.8 (≈ 1.38 µM) | 1.6 (≈ 2.75 µM) | 0.27 | 1540 (≈ 2640 µM) | Activity (MIC) of 1329 compared to streptomycin (M. tuberculosis H37Rv): 0.2; inhibition of protein synthesis [13]: inhibited protein synthesis; therapeutic index (IC50 divided by the MIC) (Vero epithelial cells [12]): 7680.5; frequency at which resistance arises (Borrelia burgdorferi): ≥ 10^−7

From US9284325B2, “Spectinamides as anti-tuberculosis agents” (UNIVERSITY OF TENNESSEE RESEARCH FOUNDATION, priority 2009, dated 2016)
